In US20240166598A1, “COMPOUNDS, COMPOSITIONS, AND METHODS OF USING THE SAME” (priority 2021, published 2024):
Like-named read-outs stand apart in the source and are kept apart here.

Assays:
[1] = in vitro; details: human, Caco-2
[2] = biological target: T1, SARS CoV-2 PLpro (Severe acute respiratory syndrome coronavirus 2 (2019-nCoV) (SARS-CoV-2), UniProt P0DTD1); experiment: biochemical; details: Table 8; read-out: FRET Enzymatic assay IC50
[3] = biological target: T1, SARS CoV-2 PLpro; experiment: cell-based; details: read-out: FlipGFP-PLpro assay EC50
[4] = biological target: T1, SARS CoV-2 PLpro; experiment: biochemical; format: binding
[5] = biological target: T1, SARS CoV-2 PLpro; experiment: biochemical; format: biochemical
[6] = biological target: T1, SARS CoV-2 PLpro; format: biochemical; details: 20 μM
[7] = system: SARS-CoV-2, Isolate USA-WA1/2020; experiment: microbe, parasite or virus in culture; format: cell-based; details: for EC50: Severe acute respiratory syndrome coronavirus 2, Vero C1008, read-out: EC50 against infectious SARS-CoV-2 (plaque formation)
[8] = biological target: human USP7 (Homo sapiens (Human), UniProt Q93009); experiment: USP7 selectivity counter-assay (Ub-AMC); format: biochemical; details: catalytic domain of human USP7; up to 30 μM for CPI-169
Sequence of human USP7 (Q93009 214-521 limits assumed): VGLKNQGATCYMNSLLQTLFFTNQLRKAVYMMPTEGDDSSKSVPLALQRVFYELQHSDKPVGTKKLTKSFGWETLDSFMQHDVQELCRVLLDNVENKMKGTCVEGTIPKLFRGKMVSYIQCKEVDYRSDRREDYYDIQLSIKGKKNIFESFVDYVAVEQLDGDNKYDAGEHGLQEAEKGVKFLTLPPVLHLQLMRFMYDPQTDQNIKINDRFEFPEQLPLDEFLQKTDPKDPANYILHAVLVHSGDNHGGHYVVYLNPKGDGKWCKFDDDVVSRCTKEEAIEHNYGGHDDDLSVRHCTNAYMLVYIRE
Experimental: (§1) Assay conditions were similar to the PLpro primary assay, with the following substitutions: USP7 assays contained 4 nM USP7 and 0.5 uM Ub-AMC (Boston Biochem); USP14 assays contained 1.7 uM USP14, 4 uM Ub-AMC, and the addition of 5% glycerol to Buffer B. PLpro activity with ISG15-AMC and Ub-AMC were assayed in a manner similar to the PLpro primary assay. PLpro and substrate concentrations were modified as follows: 80 nM PLpro was assayed with 0.5 uM Ub-AMC, and 4 nM PLpro was assayed with 0.5 uM ISG15-AMC.
as §1, with “to Buffer B.PLpro activity with” for “to Buffer B. PLpro activity with”, “with 0.5 μM ISG15-AMC.” for “with 0.5 uM ISG15-AMC.”

[9] = system: SARS-CoV-2 USA/WA1/2020; experiment: microbe, parasite or virus in culture; format: cell-based; details: for IC50: Severe acute respiratory syndrome coronavirus 2, 48 h, read-out: IC50 (viral RNA by RT-qPCR)
[10] = in vitro; details: human, microsomes
[11] = for In vitro CIint / Scale-up CIint: human
[12] = system: Vero E6 cells; details: African green monkey
[13] = system: A549-hACE2 cells; experiment: Cytotoxicity in A549-hACE2 cells (CellTiter-Glo); details: assay conditions
[14] = read-out: SPR binding assays KD
[15] = read-out: Enzyme inhibition IC50

## C[C@H]1O[C@@H](O[C@H]2[C@@H](O)C[C@H](O[C@H]3[C@@H](O)C[C@H](O[C@H]4CC[C@@]5(C)[C@H](CC[C@@H]6[C@@H]5C[C@@H](O)[C@]5(C)[C@@H](C7=CC(=O)OC7)CC[C@]65O)C4)O[C@@H]3C)O[C@@H]2C)C[C@H](O)[C@@H]1O [Digoxin]
[1]
  Papp A→B: 0.4 ×10⁻⁶ cm/s
  Papp B→A: 10.4 ×10⁻⁶ cm/s

## CC(C)NCC(O)COc1cccc2ccccc12 (stereo not shown) [Propranolol]
[1]
  Papp A→B: 17.9 ×10⁻⁶ cm/s
  Papp B→A: 18.3 ×10⁻⁶ cm/s
  efflux ratio: 1.02

## Cc1ccc(OC2CNC2)cc1C(=O)N[C@H](C)c1cccc(-c2ccc(CN[C@H]3CC[C@@H](C(=O)OC[C@H]4O[C@@H](n5ccc(NO)nc5=O)[C@H](O)[C@@H]4O)C3)s2)c1
[2]
  IC50: 0.75 ± 0.05 µM
[3]
  EC50: > 20 µM

## C=C(N[C@H](C)c1cccc2ccccc12)C(=O)c1cc(N(C)C2CNC2)ccc1Cl [ZN-3-70]
[4]; Table 10, read-out: SPR binding assays KD
  Kd: 41.9 µM
[5]; Table 10, read-out: Enzyme inhibition IC50
  IC50: 10.7 µM

## Cc1ccc(OC2CNC2)cc1C(=O)N[C@H](C)c1cccc(-c2ccc(CN[C@H]3CC[C@@H](O)C3)o2)c1
[2]
  IC50: 3.02 ± 0.58 µM
[3]
  EC50: > 60 µM

## Cc1ccc(NC2CCN(C(=O)OC(C)(C)C)CC2)cc1C(=O)N[C@H](C)c1cccc2ccccc12 [Example 2, Tert-butyl (R)-4-((4-methyl-3-((1-(naphthalen-1-yl)ethyl)carbamoyl)phenyl)amino)piperidine-1-carboxylate]
[4]; read-out: SPR binding assay KD
  Kd: 4.7 µM
[5]; read-out: Enzymatic assay IC50
  IC50: 1.1 µM

## Cc1ccc(NC2CCN(C(=O)OC(C)(C)C)CC2)cc1C(=O)N[C@H](C)c1cccc2ccccc12 [ZN-2-181]
[4]; [14]
  Kd: 4.7 µM
[5]; [15]
  IC50: 1.1 µM

## Cc1ccc(NC2CN(C(=O)OC(C)(C)C)C2)cc1C(=O)N[C@H](C)c1cccc2ccccc12 [Example 1, Tert-butyl (R)-3-((4-methyl-3-((1-(naphthalen-1-yl)ethyl)carbamoyl)phenyl)amino)azetidine-1-carboxylate]
[4]; read-out: SPR binding assay KD
  Kd: 16 µM
[5]; read-out: Enzymatic assay IC50
  IC50: 6.1 µM

## Cc1ccc(N)cc1C(=O)NC(CO)c1cccc2ccccc12 (stereo not shown) [ZN-3-13]
[4]; [14]
  Kd: 39.1 µM
[5]; Table 11, read-out: Enzyme inhibition IC50
  IC50: ~100 µM

## Cc1ccc(N)cc1C(=O)N[C@H](C)c1c(O)ccc2ccccc12 [Example 27, (R)-5-amino-N-(1-(2-hydroxynaphthalen-1-yl)ethyl)-2-methylbenzamide]
[4]; read-out: SPR binding assay KD
  Kd: 184 µM
[5]; Table 7, read-out: Enzymatic assay IC50
  IC50: > 100 µM

## CC(C)c1cc(C(C)C)c(CC(=O)NS(=O)(=O)Oc2c(C(C)C)cccc2C(C)C)c(C(C)C)c1 [Avasimibe]
[6]
  result in the PLpro screen, in words: weak PLpro inhibitors

## Cc1ccc(N)cc1C(=O)N[C@H](C)c1cccc2ccccc12 [GRL0617, reference compound]
[7]
  EC50: 21.7 ± 1.6 µM
[8]
  inhibition of USP7-catalyzed Ub-AMC hydrolysis: did not inhibit
[9]
  IC50: > 20 µM
[1]
  Papp A→B: 12.4 ×10⁻⁶ cm/s
  Papp B→A: 12.9 ×10⁻⁶ cm/s

## CCS(=O)(=O)N1CCC([C@@H](C)n2c(C)c(C(=O)NCc3c(OC)cc(C)[nH]c3=O)c3ccccc32)CC1 [CPI-169]
[8]
  inhibition of USP7-catalyzed Ub-AMC hydrolysis: not able to inhibit USP7 up to a concentration of 30 μM

## Cc1ccc(NC(=O)C2CN(C(=O)OC(C)(C)C)C2)cc1C(=O)N[C@H](C)c1cccc2ccccc12 [Example 3, Tert-butyl (R)-3-((4-methyl-3-((1-(naphthalen-1-yl)ethyl)carbamoyl)phenyl)carbamoyl)azetidine-1-carboxylate]
[4]; read-out: SPR binding assay KD
  Kd: 32.6 µM
[5]; read-out: Enzymatic assay IC50
  IC50: 5.5 µM

## (R)-6-amino-3-methyl-N- (1-(naphthalen-1- yl)ethyl)picolinamide [Example 40]
[4]; read-out: SPR binding assay KD
  Kd: > 1000 µM
[5]; read-out: Enzymatic assay IC50
  IC50: 10 to 100 µM

## Cc1ccc(NC2CNC2)cc1C(=O)N[C@H](C)c1cccc(-c2cccs2)c1 (single isomer, unassigned) [ZN-3-80]
[4]; SPR association rate, average of replicates
  Ave ka: 351000 M⁻¹ s⁻¹
[4]; SPR association rate, replicate 1
  ka1: 291000 M⁻¹ s⁻¹
[4]; SPR association rate, replicate 2
  ka2: 334000 M⁻¹ s⁻¹
[4]; SPR association rate, replicate 3
  ka3: 303000 M⁻¹ s⁻¹
[4]; SPR association rate, replicate 4
  ka4: 477000 M⁻¹ s⁻¹
[4]; SPR dissociation rate, average of replicates
  Ave kd: 0.327 s⁻¹
[4]; SPR dissociation rate, replicate 1
  kd1: 0.318 s⁻¹
[4]; SPR dissociation rate, replicate 2
  kd2: 0.369 s⁻¹
[4]; SPR dissociation rate, replicate 3
  kd3: 0.290 s⁻¹
[4]; SPR dissociation rate, replicate 4
  kd4: 0.332 s⁻¹
[10]
  half-life: 4.1 h
[11]
  In vitro CIint: 5.64 μL/min/mg protein
  Scale-up CIint: 7.07 mL/min/kg
[11]; microsomes
  stability in human liver microsome stability assays, in words: more stable than GRL0617

## Cc1ccc(NC2CNC2)cc1C(=O)N[C@H](C)c1cccc(-c2ccc(CN[C@H]3CC[C@@H](O)C3)s2)c1 (single isomer, unassigned) [XR8-89]
[7]
  antiviral activity, in words: superior antiviral potency to GRL017
[12]
  concentration at which no toxicity was observed: < 50 µM

## Cc1ccc(NC2CN(C(=O)OC(C)(C)C)C2)cc1C(=O)N[C@H](C)c1cccc2ccccc12 [ZN-2-180]
[4]; [14]
  Kd: 16 µM
[5]; [15]
  IC50: 6.08 µM

## Cc1ccc(OC2CNC2)cc1C(=O)N[C@H](C)c1cccc(-c2ccc(CN3CCCC3)o2)c1
[2]
  IC50: 4.58 ± 0.92 µM
[3]
  EC50: > 60 µM

## Cc1ccc(NC(=O)C2CCN(C(=O)OC(C)(C)C)CC2)cc1C(=O)N[C@H](C)c1cccc2ccccc12 [ZN-2-183]
[4]; [14]
  Kd: 31.1 µM
[5]; [15]
  IC50: 6 µM

## Cc1ccc(NC(=O)C2CCN(C(=O)OC(C)(C)C)CC2)cc1C(=O)N[C@H](C)c1cccc2ccccc12 [Example 4, Tert-butyl (R)-4-((4-methyl-3-((1-(naphthalen-1-yl)ethyl)carbamoyl)phenyl)carbamoyl)piperidine-1-carboxylate]
[4]; read-out: SPR binding assay KD
  Kd: 31.1 µM
[5]; read-out: Enzymatic assay IC50
  IC50: 6 µM

## Cc1ccc(NC2CNC2)cc1C(=O)N[C@H](C)c1cccc(-c2ccc(CN3CC[C@H](O)C3)s2)c1 [XR8-57]
[10]
  half-life: 85.4 h
[11]
  In vitro CIint: 0.27 μL/min/mg protein
  Scale-up CIint: 0.34 mL/min/kg

## Cc1ccc(OC2CNC2)cc1C(=O)N[C@H](C)c1cccc(-c2ccc(CN[C@H]3CC[C@@H](C(=O)NCCOCCOCCOCCOCCNc4cccc5c4C(=O)N(C4CCC(=O)NC4=O)C5=O)C3)s2)c1 (stereo partly shown)
[2]
  IC50: 1.67 ± 0.33 µM
[3]
  EC50: > 20 µM

## Cc1ccc(NC2CNC2)cc1C(=O)N[C@H](C)c1cccc(-c2ccc(CNC3CCCC3)s2)c1 [XR8-23]
[10]
  half-life: 3.92 h
[12]
  concentration at which no toxicity was observed: < 50 µM
[13]
  concentration at which cytotoxicity was not observed: < 10 µM
[11]
  In vitro CIint: 5.89 μL/min/mg protein
  Scale-up CIint: 7.38 mL/min/kg
[1]
  Papp A→B: 0.16 ×10⁻⁶ cm/s
  Papp B→A: 1.56 ×10⁻⁶ cm/s

## Cc1ccc(NC2CNC2)cc1C(=O)N[C@H](C)c1cccc(-c2ccc(CN3CCCC3)s2)c1 [XR8-24]
[7]
  EC50: 2.5 ± 1.9 µM
[9]; 20 μM
  effect of treatment on viral RNA versus remdesivir (10 μM): not significantly different from that of remdesivir
[9]
  IC50: 1.2 ± 0.2 µM
[10]
  half-life: 2.41 h
[12]
  concentration at which no toxicity was observed: < 50 µM
[13]
  concentration at which cytotoxicity was not observed: < 50 µM
[11]
  In vitro CIint: 9.60 μL/min/mg protein
  Scale-up CIint: 12.04 mL/min/kg
[1]
  Papp A→B: 0.14 ×10⁻⁶ cm/s
  Papp B→A: 3.06 ×10⁻⁶ cm/s

## CCOc1nc2cccc(C(=O)O)c2n1Cc1ccc(-c2ccccc2-c2nnn[nH]2)cc1 [candesartan]
[6]
  result in the PLpro screen, in words: weak PLpro inhibitors
